Measured values reported in paper PMC9299836 (eLife, 2022).
Several values for one entry are separate records, joined by “and”; a condition that tells them apart may be missing. Identical values can stand only once.

How the values were obtained:
[1] = target: T1, mGluR2 (Mus musculus, UniProt Q14BI2); assay: Functional calcium imaging, SNAP-mGluR2 (no FLAG-tag) with chimeric G protein Gqo5 in HEK293T cells; assay type: cell-based; design: Full length mGluR2 construct with an amber codon (TAG) mutation of amino acid A548 (azi-CRD) or N-terminal SNAP-tag (SNAP-mGluR2); host or cells: HEK293T; conditions: for Intracellular Ca2+ Response (normalized to 1mM glutamate), Mean: Glutamate + 90nM Ro 64-5229
[2] = target: T1, mGluR2; assay: Live-cell FRET, SNAP-m2 (VFT domain) inter-subunit sensor in HEK293T cells; conditions: for Mean normalized FRET response, SNAP-m2 NAM DRC: glutamate + 10μM modulator, maximal response normalized to 1mM glutamate;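 as to all read-outs here: apparent FRET efficiency from whole-membrane ROIs of single cells, corrected for donor bleed-through and background, ΔFRET as treatment minus pretreatment signal, recorded at room temperature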
[3] = target: mGluR2 (Mus musculus, UniProt Q14BI2, INS715F); assay: Live-cell FRET, azi-ECL2 (7TM domain, extracellular loop 2) sensor in HEK293T cells; conditions: for Mean normalized azi-ECL2 FRET response: glutamate + 10μM modulator, maximal response normalized to 1mM glutamate;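 as to all read-outs here: Cy3/Cy5 click-labeled sensor, whole-membrane ROIs per cell, apparent FRET after bleed-through correction, ΔFRET as treatment minus pre-treatment signal, at room temperature, at least three biological replicates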
[4] = target: mGluR2 (Mus musculus, UniProt Q14BI2, A548F); assay: Live-cell FRET, azi-CRD (cysteine-rich domain) sensor in HEK293T cells; conditions: for azi-CRD normalized FRET response, Mean / azi-CRD normalized FRET response, individual cell: Glutamate + 10μM modulator (NAM); for azi-CRD normalized FRET response, Mean: maximal response normalized to 1mM glutamate; for azi-CRD normalized FRET response, individual cell: single-cell replicate
[5] = 10μM Ro 64-5229, ([1 mM glutamate + modulator] - [1 mM glutamate]) × 100

mGluR2 (Mus musculus, UniProt Q14BI2, A548F), sequence (Q14BI2 19-872 A548F): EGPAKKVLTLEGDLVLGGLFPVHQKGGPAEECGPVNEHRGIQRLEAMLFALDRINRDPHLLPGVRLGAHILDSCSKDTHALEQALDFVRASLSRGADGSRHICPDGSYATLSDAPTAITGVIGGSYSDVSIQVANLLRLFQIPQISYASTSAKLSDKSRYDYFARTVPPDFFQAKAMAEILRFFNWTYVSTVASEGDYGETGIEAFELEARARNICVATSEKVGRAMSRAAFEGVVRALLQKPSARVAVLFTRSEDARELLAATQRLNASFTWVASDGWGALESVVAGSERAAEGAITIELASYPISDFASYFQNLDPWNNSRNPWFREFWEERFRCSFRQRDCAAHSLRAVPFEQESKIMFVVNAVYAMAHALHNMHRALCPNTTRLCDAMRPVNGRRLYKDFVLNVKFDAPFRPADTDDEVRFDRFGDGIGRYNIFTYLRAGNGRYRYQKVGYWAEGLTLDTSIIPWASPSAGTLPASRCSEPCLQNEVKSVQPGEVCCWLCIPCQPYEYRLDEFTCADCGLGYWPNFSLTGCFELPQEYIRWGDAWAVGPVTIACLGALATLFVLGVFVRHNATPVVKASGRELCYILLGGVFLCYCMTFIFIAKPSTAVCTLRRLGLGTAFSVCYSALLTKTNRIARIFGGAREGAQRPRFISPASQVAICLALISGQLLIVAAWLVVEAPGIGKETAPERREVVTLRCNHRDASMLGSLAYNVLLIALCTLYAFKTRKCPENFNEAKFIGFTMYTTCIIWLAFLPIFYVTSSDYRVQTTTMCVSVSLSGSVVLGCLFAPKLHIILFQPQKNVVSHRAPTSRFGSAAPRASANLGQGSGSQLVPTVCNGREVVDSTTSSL
mGluR2 (Mus musculus, UniProt Q14BI2, INS715F), sequence (Q14BI2 with tags, fused parts or gaps INS715F): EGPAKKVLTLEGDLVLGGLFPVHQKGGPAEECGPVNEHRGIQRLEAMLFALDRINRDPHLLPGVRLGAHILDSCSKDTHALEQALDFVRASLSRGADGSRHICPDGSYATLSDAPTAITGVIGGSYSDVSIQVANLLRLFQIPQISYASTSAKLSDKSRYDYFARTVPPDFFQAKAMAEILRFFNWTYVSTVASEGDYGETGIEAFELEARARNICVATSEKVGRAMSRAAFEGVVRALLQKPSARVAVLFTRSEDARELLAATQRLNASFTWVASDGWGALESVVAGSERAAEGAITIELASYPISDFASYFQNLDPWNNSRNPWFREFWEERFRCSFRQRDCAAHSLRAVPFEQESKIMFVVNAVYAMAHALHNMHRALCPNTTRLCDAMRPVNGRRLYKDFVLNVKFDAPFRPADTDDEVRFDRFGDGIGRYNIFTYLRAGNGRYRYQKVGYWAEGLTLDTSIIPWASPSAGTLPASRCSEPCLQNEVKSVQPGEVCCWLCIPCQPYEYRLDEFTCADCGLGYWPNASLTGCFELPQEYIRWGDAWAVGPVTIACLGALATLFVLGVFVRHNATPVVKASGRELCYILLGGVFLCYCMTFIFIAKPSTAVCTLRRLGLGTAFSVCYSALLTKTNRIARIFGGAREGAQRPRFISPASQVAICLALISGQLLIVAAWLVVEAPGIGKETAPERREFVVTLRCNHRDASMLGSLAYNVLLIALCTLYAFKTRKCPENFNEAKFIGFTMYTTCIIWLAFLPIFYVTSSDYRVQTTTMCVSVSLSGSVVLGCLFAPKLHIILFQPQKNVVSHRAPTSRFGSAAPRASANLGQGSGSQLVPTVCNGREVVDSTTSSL
T1 sequence (Q14BI2 19-872): as the sequence (Q14BI2 19-872 A548F) above, with F530A counted along it

Effect on receptor activation (calcium imaging) in the presence of glutamate ([1]; 10 μM NAM): block receptor activation
Intracellular Ca2+ Response, % 1mM Glutamate ([1]; 1mM Glutamate + 90nM Ro 64-5229, individual experiments): 79.692% and 78.096% and 66.28%
Mean ΔEfficacy of glutamate ([1]; Ca2+ response, 1 mM glutamate + 90 nM modulator, ([1 mM glutamate + modulator] - [1 mM glutamate]) × 100): -25.3109
ΔEfficacy of glutamate, individual experiments ([1]; Ca2+ response, 1 mM glutamate + 90 nM modulator, single replicate): -21.9043 and -33.7198 and -20.3084
Mean ΔPotency of glutamate ([1]; Ca2+ response, glutamate + 90 nM modulator, (([modulator + glutamate]EC50 – [glutamate]EC50)/[glutamate]EC50) × 100): 160.286
ΔPotency of glutamate, individual experiments ([1]; Ca2+ response, glutamate + 90 nM modulator, single replicate): 46.8661 and 141.491 and 292.502
Intracellular Ca2+ Response (normalized to 1mM glutamate), Mean ([1]; log[Glutamate] (M) -3): 0.7469
Intracellular Ca2+ Response (normalized to 1mM glutamate), Mean ([1]; log[Glutamate] (M) -3.60206): 0.7222
Intracellular Ca2+ Response (normalized to 1mM glutamate), Mean ([1]; log[Glutamate] (M) -4.1549): 0.5737
Intracellular Ca2+ Response (normalized to 1mM glutamate), Mean ([1]; log[Glutamate] (M) -4.52288): 0.2233
Intracellular Ca2+ Response (normalized to 1mM glutamate), Mean ([1]; log[Glutamate] (M) -5): 0.1471
Intracellular Ca2+ Response (normalized to 1mM glutamate), Mean ([1]; log[Glutamate] (M) -5.39794): 0
Intracellular Ca2+ Response (normalized to 1mM glutamate), Mean ([1]; log[Glutamate] (M) -5.82391): 0
Intracellular Ca2+ Response (normalized to 1mM glutamate), Mean ([1]; log[Glutamate] (M) -6.52288): 0
Intracellular Ca2+ Response (normalized to 1mM glutamate), Mean ([1]; log[Glutamate] (M) -7): 0
SNAP-m2 - ΔEfficacy, Mean ΔEfficacy [2, 5]: -12.5077
Mean max response (normalized max ΔFRET) ([2]; SNAP-m2, 1 mM glutamate + 10 μM modulator, normalized to 1 mM glutamate): 0.87
Mean ΔPotency ([2]; SNAP-m2, 10μM modulator, (([modulator + glutamate]EC50 – [glutamate] EC50)/[glutamate] EC50) × 100): 64.9494
Mean ΔEfficacy ([2]; SNAP-m2, 10μM modulator, ([1 mM glutamate + modulator] - [1 mM glutamate]) × 100): -12.5077
Hill slope of glutamate titration ([2]; SNAP-m2 sensor, + 10 μM modulator): –1.52
Mean normalized FRET response, SNAP-m2 NAM DRC ([2]; log[Glutamate] (M) -3): -0.8749
Mean normalized FRET response, SNAP-m2 NAM DRC ([2]; log[Glutamate] (M) -4.1549): -0.7502
Mean normalized FRET response, SNAP-m2 NAM DRC ([2]; log[Glutamate] (M) -4.52288): -0.5932
Mean normalized FRET response, SNAP-m2 NAM DRC ([2]; log[Glutamate] (M) -5): -0.2293
Mean normalized FRET response, SNAP-m2 NAM DRC ([2]; log[Glutamate] (M) -5.39794): -0.07065
Mean normalized FRET response, SNAP-m2 NAM DRC ([2]; log[Glutamate] (M) -5.82391): -0.0217
Mean normalized FRET response, SNAP-m2 NAM DRC ([2]; log[Glutamate] (M) -6.52288): 0
Mean normalized FRET response, SNAP-m2 NAM DRC ([2]; log[Glutamate] (M) -7): 0
Mean normalized FRET response, SNAP-m2 NAM DRC ([2]; log[Glutamate] (M) -7.69897): 0
Mean normalized FRET response, SNAP-m2 NAM DRC ([2]; log[Glutamate] (M) -4.69897): -0.4605
azi-ECL2 - ΔEfficacy, Mean ΔEfficacy [3, 5]: -16.382
Mean ΔPotency ([3]; 10μM modulator, (([modulator + glutamate]EC50 – [glutamate] EC50)/[glutamate] EC50) × 100): 238.581
Mean max response (normalized max ΔFRET) ([3]; azi-ECL2, 1 mM glutamate + 10 μM modulator, normalized to 1 mM glutamate): 0.84
Hill slope of glutamate titration ([3]; azi-ECL2 sensor, + 10 μM modulator): 1.07
Mean normalized azi-ECL2 FRET response ([3]; log[Glutamate] (M) -3): 0.8362
Mean normalized azi-ECL2 FRET response ([3]; log[Glutamate] (M) -4.1549): 0.6516
Mean normalized azi-ECL2 FRET response ([3]; log[Glutamate] (M) -4.52288): 0.5392
Mean normalized azi-ECL2 FRET response ([3]; log[Glutamate] (M) -5): 0.3248
Mean normalized azi-ECL2 FRET response ([3]; log[Glutamate] (M) -5.39794): 0.1335
Mean normalized azi-ECL2 FRET response ([3]; log[Glutamate] (M) -5.82391): 0.04706
Mean normalized azi-ECL2 FRET response ([3]; log[Glutamate] (M) -6.52288): 0
Mean normalized azi-ECL2 FRET response ([3]; log[Glutamate] (M) -7): 0
Mean normalized azi-ECL2 FRET response ([3]; log[Glutamate] (M) -7.69897): 0
Mean normalized azi-ECL2 FRET response ([3]; log[Glutamate] (M) -4.69897): 0.5381
azi-CRD - ΔEfficacy, Mean ΔEfficacy [4, 5]: -41.4006
azi-CRD normalized FRET response, Mean ([4]; log[Glutamate] (M) -3): 0.586
azi-CRD normalized FRET response, individual cell ([4]; log[Glutamate] (M) -3): 0.586
azi-CRD normalized FRET response, Mean ([4]; log[Glutamate] (M) -4.1549): 0.5093
azi-CRD normalized FRET response, Mean ([4]; log[Glutamate] (M) -4.52288): 0.3977
azi-CRD normalized FRET response, Mean ([4]; log[Glutamate] (M) -5): 0.2248
azi-CRD normalized FRET response, Mean ([4]; log[Glutamate] (M) -5.39794): 0.1255
azi-CRD normalized FRET response, Mean ([4]; log[Glutamate] (M) -5.82391): 0.06192
azi-CRD normalized FRET response, Mean ([4]; log[Glutamate] (M) -6.52288): 0.03074
azi-CRD normalized FRET response, Mean ([4]; log[Glutamate] (M) -7): 0
azi-CRD normalized FRET response, individual cell ([4]; log[Glutamate] (M) -7): 0
Hill slope of glutamate titration ([4]; azi-CRD sensor, + 10 μM modulator): 1.05
Mean max response (normalized max ΔFRET) ([4]; azi-CRD, 1 mM glutamate + 10 μM modulator, normalized to 1 mM glutamate): 0.59
Mean ΔPotency ([4]; azi-CRD, 10μM modulator, (([modulator + glutamate]EC50 – [glutamate] EC50)/[glutamate] EC50) × 100): 46.1673
Structure (SMILES): Clc1cccc(Cl)c1/C(=C/n1cncn1)OC1CCCCCC1 [Ro 64–5229]
ΔPotency, individual cell responses ([3]; 10μM modulator, single cells, (([modulator + glutamate]EC50 – [glutamate] EC50)/[glutamate] EC50) × 100): 105.749 and 188.087 and 277.044 and 382.546 and 239.476
ΔEfficacy, individual cell responses ([3]; 10μM modulator, single cells, ([1 mM glutamate + modulator] - [1 mM glutamate]) × 100): -3.67 and -2.778 and -15 and -26.6667 and -29.3756 and -15.3219 and -1.127 and -37.1174
Live-cell FRET max response normalized to 1mM glutamate ([3]; azi-ECL2 sensor, Glutamate + 10μM Ro 64-5229, individual values (N=8)): 0.7062 and 0.8468 and 0.9887 and 0.6288 and 0.9633 and 0.9722 and 0.85 and 0.7333
azi-CRD - ΔEfficacy, individual cell responses ([4]; 10μM Ro 64-5229, single cells): -28.0702 and -27.0053 and -21.7759 and -17.8571 and -54.2848 and -56.1085 and -49.8998 and -39.7625 and -52.6646 and -45.8685 and -32.6644 and -42.4305 and -51.9931 and -35.5526 and -41.2702 and -37.27 and -50.0412 and -60.6915
azi-CRD normalized FRET response, individual cell ([4]; log[Glutamate] (M) -4.1549): 0.5346 and 0.4622 and 0.5203 and 0.5084 and 0.5826 and 0.5517 and 0.4974 and 0.5062 and 0.5143 and 0.4926 and 0.4963 and 0.4643 and 0.4905
azi-CRD normalized FRET response, individual cell ([4]; log[Glutamate] (M) -4.52288): 0.3335 and 0.3611 and 0.3991 and 0.4165 and 0.5072 and 0.4352 and 0.378 and 0.3755 and 0.3785 and 0.4157 and 0.3821 and 0.3693 and 0.4189
azi-CRD normalized FRET response, individual cell ([4]; log[Glutamate] (M) -5): 0.1496 and 0.3033 and 0.2652 and 0.2455 and 0.317 and 0.2125 and 0.1682 and 0.183 and 0.1871 and 0.1831 and 0.172 and 0.2951 and 0.2409
azi-CRD normalized FRET response, individual cell ([4]; log[Glutamate] (M) -5.39794): 0.1184 and 0.1898 and 0.1288 and 0.1204 and 0.1285 and 0.1251 and 0.1085 and 0.1183 and 0.1305 and 0.09889 and 0.1192 and 0.1155 and 0.1302
azi-CRD normalized FRET response, individual cell ([4]; log[Glutamate] (M) -5.82391): 0.04987 and 0.1052 and 0.0682 and 0.05385 and 0.04969 and 0.05654 and 0.05788 and 0.05365 and 0.05774 and 0.05311 and 0.05405 and 0.04746 and 0.09767
azi-CRD normalized FRET response, individual cell ([4]; log[Glutamate] (M) -6.52288): 0.03117 and 0.03301 and 0.02778 and 0.02217 and 0.02741 and 0.0634 and 0.03617 and 0.02751 and 0.02353 and 0.01178 and 0.01113 and 0.04333 and 0.04124
Live-cell FRET max response normalized to 1mM glutamate ([4]; azi-CRD sensor, Glutamate + 10μM Ro 64-5229, individual values (N=18)): 0.4572 and 0.4389 and 0.501 and 0.6024 and 0.4733 and 0.5413 and 0.6734 and 0.5757 and 0.4801 and 0.6445 and 0.5873 and 0.6273 and 0.4996 and 0.3931 and 0.7193 and 0.7299 and 0.7822 and 0.8214
ΔPotency, individual cell ([4]; azi-CRD, 10μM modulator, calculated from individual cell responses): 111.788 and 54.4953 and 84.4604 and 80.2661 and 72.5435 and 46.8592 and 26.2598 and 27.1246 and 2.91 and 18.4766 and 20.2062 and -17.7582
